# In patent publication US20020174454A1, “Overexpression of ABI5 in plants to prevent precocious seed germination and to confer resistance to drought and high salt” (priority 2001, published 2002):
# Columns and labels:
# Format in all cases: in vivo, Arabidopsis thaliana
# [1] = test system: ABI5; assay: ABI5 protein accumulation in WT Ws seeds/seedlings by Western blot
# From the text: RNA extraction and Northern blot hybridizations were done as described (Lopez-Molina and Chua, 2000). A DNA fragment encoding the ABI5 open reading frame was cloned into pET28a (Novagen) and the recombinant protein was induced and purified using a commercial kit according to the manufacturer's instructions (His trap, Amersham Pharmacia). Polyclonal anti-ABI5 antiserum was obtained from rabbits immunized with His-tagged ABI5. Standard methods using His-ABI5 coupled to a CNBr activated Sepharose 6-MB column (Amersham Pharmacia) were used to affinity purify specific ABI5 antibody from sera.
# Plant protein extracts were resolved under reducing conditions using 10% SDS-polyacrylamide gels (Laemmli, 1970). […]
# ABA concentrations (3-10 μM) that discriminate between abi5-4 mutants and WT under normal growth conditions were selected. […] Indeed, by immunoblot analysis, the ABI5 protein with a molecular mass of about 50 Kd was detected two days after stratification in the presence of ABA. […]
# To determine whether the observed ABA-dependent accumulation of ABI5 levels was restricted to early development, we stratified WT seeds in the absence of ABA and then transferred the seedlings at different time intervals to a medium supplemented with 5 μM ABA (FIG. 3A). […] ABI5 levels were monitored by Western blot analysis. […] ABI5 levels were monitored by Western blot analyses as described for FIG. 1 (FIG. 3B).
# [2] = test system: abi5-4 mutants; assay: ABA inhibition of root growth, abi5-4 mutants
# Experimental: (§1) The following methods were used in obtaining the further results described below. WT Ws seedlings and transgenic Ws seedlings carrying 35S::HA -ABI5 (WT/35S::HA -ABI5, T3 generation) were germinated and grown for 5 days on MS medium without ABA. Seedlings were then transferred to plates containing 5 μM ABA, and subsequent root growth was scored after 5 days. Values were expressed as the average ±SD of 15 seedlings. For water loss measurement, young rosette leaves at the same developmental stage were excised from WT Ws, WT/35S::HA-ABI5 and abi1 plants and weighed at the different times indicated (n=3).
# (§2) At 0.5 μM ABA, WT plants grew normally (FIG. 5A). Inhibition of root growth by ABA was unaffected in abi5-4 mutants but was exacerbated in ABI5-overexpressing lines (FIG. 5B). Five-day old seedlings grown in the absence of ABA were transferred to 0, 5 and 10 μM ABA plates for 5 days. The root length of ABA-treated seedlings was expressed as a percentage of non-treated controls (n=15).
# [3] = test system: HA-ABI5; assay: HA-ABI5 accumulation in WT/35S::HA-ABI5 transgenic lines by immunoblot; details: WT/35S::HA-ABI5 lines, anti-HA immunoblot
# Experimental: Given the strong ABA-dependent ABI5 protein accumulation, we were interested to determine whether ABI5 protein stability is altered in the presence of ABA. For this purpose we generated WT/35S::HA-ABI5 transgenic lines constitutively expressing HA-ABI5 transcript. DNA manipulations were performed according to standard methods (Sambrook et al., 1989). 35S constructs were generated using a binary vector (Kost et al., 1998). Transgenic Arabidopsis lines (Ws ecotype) were generated using the Agrobacterium tumefaciens vacuum-infiltration method (Bechtold and Pelletier, 1998). Seeds (T1) from infiltrated plants were plated on MS medium containing 10 mg/L gluphosinate ammonium (Crescent Chemical) and 100 mg/L cefotaxime (Sigma).
# In these lines, HA-ABI5 accumulation is 5-10 fold higher in the presence of ABA as shown by immunoblot analysis using anti-HA antibodies. 8-day old Ws/35S::HA-ABI5 seedlings (T3 generation) were transferred to MS medium with or without 50 μM ABA. Proteins were extracted at 0 hours, 10 minutes, 1 hour, 2 hours and 30 minutes, and 6 hours and ABI5 protein levels were monitored by Western blot analysis using antibodies to HA (FIG. 2A; each lane contains 5 μg protein). […] Equal amounts (5 μg) of protein were loaded on a 10% SDS-polyacrylamide (Novex) gel and analyzed by Western blots using rabbit antibody to HA (1:3,000; Santa Cruz).
# [4] = test system: Ws/35S::HA-ABI5 transgenic plants; assay: Germination and growth of ABI5 overexpressing transgenic seeds on ABA
# Experimental: To determine whether the presence of ABI5 is sufficient to arrest growth in the absence of ABA, we expressed the ABI5 gene from a constitutive promoter. Transgenic Arabidopsis lines expressing ABI5 under the control of the cauliflower mosaic virus 35S promoter in WT Ws or abi5-4 backgrounds were generated and several independent lines expressing various levels of ABI5 were obtained. WT Ws and Ws/35S::HA-ABI5 transgenic plants were grown for 5 days with 0, 0.5 and 5 μM ABA. In the transgenic line shown in FIG. 5A, ABI5 levels in absence of ABA were at least five fold higher than that in WT plants grown in the presence of ABA. Transgenic seeds were arrested in development at 0.5 μM ABA and only started to germinate after 5 days (FIG. 5A). WT Ws seeds were insensitive to 0.5 μM ABA and were fully germinated in 5 μM ABA after 5 days (FIG. 5A). Despite the accumulation of ABI5, the lines germinated and developed normally in the absence of ABA.
# We next investigated the effect of ABA in ABI5 overexpressing lines. Addition of 5 μM ABA severely delayed germination by at least 7 days and blocked mature embryo growth in several lines. To measure more precisely the ABA response, we plated WT/35S::HA-ABI5 transgenic seeds on growth media containing different ABA concentrations. Treatment of WT/35S::HA-ABI5 plants with 0.5 μM ABA was sufficient to phenocopy the response of WT plants exposed to 5 μM ABA (FIG. 5A).
# [5] = test system: WT Ws plants; assay: Survival after drought treatment on absorbing papers, WT Ws plants treated with ABA for 10 days; details: +ABA 5 μM for 10 days, n = 30
# Experimental: (§3) Seeds of Arabidopsis thaliana, ecotype Wassilewskija, Columbia or Landsberg erecta were surface sterilized in 50% commercial bleach (Clorox) and 0.05% Tween 20 as described (Lopez-Molina and Chua, 2000) and then plated on Murashige and Skoog (MS) medium (Murashige and Skoog, 1962) containing 0.8% (w/v) Bacto-Agar (Difco Laboratories). Plates were routinely kept for 3 days in the dark at 4° C. to break dormancy (stratification) and transferred thereafter to a tissue culture room under constant white fluorescent light (27 μmol.m^−2.s^−1) at 22° C. Seeds of abi1, abi3-I and abi4 were obtained from the Nottingham Arabidopsis Stock Center (NASC). For ABA treatments, seedlings were transferred to plates supplemented with ABA (mixed isomers, Sigma A7393) which was dissolved in methanol. Control plates contained equal amounts of methanol.
# (§4) To test this hypothesis, we broke embryo dormancy of WT and abi5-4 seeds in the absence of ABA for 24 hours. Seeds were then transferred for an additional 10 days to media with or without ABA. After 10 days, ABA-treated WT mature embryos had germinated but were arrested in growth as described above, whereas abi5-4 or non-treated WT Ws plants were green and continued to grow. Plants were then water-stressed for different time intervals on absorbent papers before being allowed to recover in normal medium. […] This is in sharp contrast with abi5-4 embryos, none of which survived. abi5-4 plants were able to survive better with than without ABA (Table 1), although not to the same extent as WT. […] Indeed, abi5-4 plants grow more slowly on 5 μM ABA than on medium lacking it, whereas the growth of WT plants is completely arrested. This developmental difference may be responsible for the higher resistance to water depletion of ABA-treated abi5-4 plants (Table 1).
# [6] = test system: Ws/35S::HA-ABI5 transgenic lines; assay: ABA inhibition of root growth, ABI5-overexpressing lines; details: 5-day old seedlings, 5 and 10 μM ABA for 5 days, n=15
# Experimental: as §1, §2
# [7] = test system: abi5-4 plants; assay: Survival after drought treatment on absorbing papers, abi5-4 plants treated with ABA for 10 days; details: abi5, +ABA 5 μM for 10 days, n = 30
# Experimental: as §3, §4
# [8] = test system: WT Ws seeds; assay: Germination and early growth arrest of WT seeds on ABA plates
# Experimental: as §3
# Given the ABA-insensitivity of abi5-4 mutant and the timing of ABI5 induction upon ABA exposure, we studied the effect of ABA on growth during early development. […] Virtually all WT seeds were fully germinated on 5 μM ABA only 5 days post-stratification (FIG. 3C). Similar results were obtained with different Ws seed batches and for the ecotypes Landsberg and Columbia. At 10 μM ABA, complete germination was observed 8 days post-stratification (FIG. 3D). […] ABI5 levels remained constant as long as ABA was present. […] Upon ABA removal, all of the embryos started to green and resumed normal growth.
structure (smiles),measurement,setting,value
"CC1=CC(=O)CC(C)(C)[C@@]1(O)/C=C/C(C)=C\C(=O)O [ABA, Abscisic acid]",developmental window of efficient induction of ABI5 accumulation,[1]; WT Ws transferred to 5 μM ABA plates,48-60 hours post-stratification
same,increase of ABI5 protein level in the presence of ABA,"[1]; WT Ws, 5 μM ABA, first two days post-stratification",at least 10 fold
same,inhibition of root growth by ABA,[2],unaffected
same,HA-ABI5 accumulation higher in the presence of ABA,[3],5-10 fold
same,delay of germination,"[4]; ABI5 overexpressing lines, 5 μM ABA",at least 7 days
same,ABA concentration sufficient to phenocopy the response of WT plants exposed to 5 μM ABA,[4]; WT/35S::HA-ABI5 plants,0.5 µM
same,time after which arrested transgenic seeds started to germinate,"[4]; Ws/35S::HA-ABI5 seeds, 0.5 μM ABA",5 days
same,Percentage of survival after different period of drought treatment (hours),[5]; 0 hours drought,100%
same,Percentage of survival after different period of drought treatment (hours),[5]; 8 hours drought,100%
same,Percentage of survival after different period of drought treatment (hours),[5]; 12 hours drought,98%
same,Percentage of survival after different period of drought treatment (hours),[5]; 24 hours drought,90%
same,Percentage of survival after different period of drought treatment (hours),[5]; 36 hours drought,84%
same,inhibition of root growth by ABA compared with WT Ws,[6],exacerbated
same,Percentage of survival after different period of drought treatment (hours),[7]; 0 hours drought,100%
same,Percentage of survival after different period of drought treatment (hours),[7]; 8 hours drought,97%
same,Percentage of survival after different period of drought treatment (hours),[7]; 12 hours drought,55%
same,Percentage of survival after different period of drought treatment (hours),[7]; 24 hours drought,20%
same,Percentage of survival after different period of drought treatment (hours),[7]; 36 hours drought,0%
same,response of WT Ws seeds to ABA,"[8]; 0.5 μM ABA, 5 days",insensitive
same,time after which all seeds fully germinate in the presence of ABA,[8]; ABA concentration range 3 to 10 μM,10 days
same,"embryos remaining white and quiescent, not growing","[8]; WT germinated embryos kept on ABA for at least a month, n=200",95%±3
same,time at which virtually all seeds were fully germinated,"[8]; WT seeds, 5 μM ABA",5 days post-stratification
same,time at which complete germination was observed,"[8]; WT seeds, 10 μM ABA",8 days post-stratification
